The conditions of data set [1]: humans; cited from earlier work.
A short description of data set [2]: Continuous real-time MEDIC measurement of in vivo DOX concentration in live rats. The conditions noted are these: male, Sprague-Dawley, rat, 1 mg·m^−2, alpha-phase half-life t1/2^α.
Procedure: (§1) All rats used in this work were Sprague-Dawley males from Charles River Laboratories (Hollister, CA, USA). To safely mount the device and catheters, rats were sedated throughout the duration of the experiment via isoflurane gas (1-4%) and ketamine/xylazine (56.25 mg·kg^−1 and 7.5 mg·kg^−1 respectively). Animals were placed dorsal side down on a heating pad. The right jugular vein was isolated and catheterized to provide an intravenous injection port. An initial injection of 0.41 mL heparin solution (1000 U·mL^−1 USP) was performed, followed by periodic injections of 0.1 mL every 40 minutes to prevent clot formation in the catheters. The left jugular vein was isolated and cannulated. A 0.3 mL pre-drug injection control blood sample was taken and set aside for the duration of the experiment. The end of a 10-cm length of Tygon® tubing (2.29-mm OD and 0.76-mm ID) was inserted into the cannula to connect the intravenous blood source to the blood port of the MEDIC device. […] Target concentrations were adjusted for a constant 0.3 mL injection volume, and injected via the input catheter in a 30-second bolus at >30 min intervals. Upon completion of each experiment, subjects were euthanized via intravenous Euthasol® injection. The MEDIC input tube was then redirected to the control blood to obtain post-experiment readings of zero-target blood samples.
(§2) A rat with a body surface area of 620 cm^2 was dosed with increasing DOX concentrations (0-2 mg·m^−2) over 4.5 hours (FIG. 12, Panel A).
For data set [3] the following is noted: male, Sprague-Dawley, rat, in vivo.
Procedure: as §1, §2
Data set [4] has as its system DOX probe. The data set can be described thus: DOX probe specificity characterization against off-target chemotherapy agents. Particulars: 1,000× greater concentrations (1 mM vs DOX 1 μM), 1×SSC. It counts as binding. The text has this: Probes were characterized in terms of affinity, specificity and kinetic response. […] At each concentration, the signal was permitted to equilibrate and then ten subsequent readings were obtained from two separate electrodes and averaged as the reported values. […] Voltammograms were taken in immediate succession to provide maximal temporal resolution. Dose-response curves were obtained by fitting data to a one-site binding model, and kinetic-response curves were obtained by fitting data to a one-phase association and dissociation model.

The conditions of data set [5]: stated, not measured here; cited from earlier work.
A short description of data set [6]: in vivo. Particulars: male, Sprague-Dawley, rat, iv. The method, then: A calibration curve was obtained (FIG. 5), then doses of 32, 64 and 96 mg·kg^−1 were serially injected, followed by a baseline control.
Data set [7] can be described thus: DOX probe characterization: dose-response (affinity) and kinetic response by square-wave voltammetry. In kind it is binding. The text has this:
Aptamer probes were synthesized with the following sequences: DOX-probe: 5′-HS—(CH2)6-ACCATCTGTGTAAGGGGTAAGGGGTGGT-MB-3′ (SEQ ID NO: 1), Kanamycin-probe: 5′-HS—(CH2)6-GGGACTTGGTTTAGGTAATGAGTCCC-MB-3′ (SEQ ID NO: 2). DOX-probe is a truncated form of an anthracycline aptamer. A region of the aptamer suspected of supporting a hairpin structure was selected, with an apparent active binding site in the base. The stem was engineered to enable effective signal transduction through stabilization of the folded state. The kanamycin probe was adapted from that described in Rowe et al. Analytical chemistry 82, 7090-5 (2010). Each probe was thiolated at the 5′-end to facilitate self-assembly on the gold working electrodes, and conjugated with an MB redox label at the 3′-end to enable target binding-induced charge transfer modulation. Prior to probe immobilization, the gold electrodes were first cleaned via cyclic voltammetry, with twelve potential sweeps ranging from −0.8 to 0.9 V (with respect to the platinum reference electrode) applied at 0.1 V·s^−1 with a sample interval of 0.001 V and 10 μA sensitivity in 50 mM H2SO4. Subsequently, the chamber was flushed with DI water, followed by the addition of probe solution. The probe solution was prepared by adding 2 μL of 10 mM tris(2-carboxyethyl)phosphine (TCEP) to 1 μL of 200 μM probe stock and incubating at room temperature for 60 minutes to enable cleavage of disulphide bonds. The solution was then diluted to 2 μM in 1× saline-sodium citrate (SSC) buffer for effective self-assembly. The chip was incubated with probe solution for 1 hour at room temperature, permitting the thiolated aptamer to form a monolayer on the gold electrode surface. The chamber was then flushed with 5 mL DI water for 5 minutes, and the remaining electrode area was incubated for two hours in passivation solution, consisting of 1 μL of stock 6-mercaptohexanol diluted to 3 mM in DI water. The chamber was flushed again with DI water and filled with 1×SSC, after which the device was stored at 4° C. until use.
Electrochemical measurements were conducted with an electrochemical analyzer (730B, CH Instruments, Austin, TX). The chip was connected via 8-pin card-edge connector and subjected to SWV scans. Working electrodes were scanned in continuous succession with an average scan period of 8 seconds. To accommodate potential shifts due to the non-ideal on-chip pseudo-reference electrodes, a 400 mV potential range was scanned to reliably capture the MB redox peak. For optimal frequency determination for the KDM, frequency-sweep scans were performed from 5 Hz to 800 Hz, with amplitude of 25 mV. A custom peak-fitting script was created to fit the SWV measurements with a Gaussian curve on a hyperbolic baseline. Peak currents were then normalized to a baseline peak current to generate signal gain. Unless otherwise noted, all reported gains were obtained via KDM with the difference divided average of gains from 7.5 Hz and 75 Hz signals.
Probes were characterized in terms of affinity, specificity and kinetic response. For affinity measurements, a dose-response curve was obtained by subjecting the probe to DOX concentrations (for the DOX-probe) ranging from 50 nM to 10 μM in 1×SSC at a flow-rate of 1 mL·h^−1. At each concentration, the signal was permitted to equilibrate and then ten subsequent readings were obtained from two separate electrodes and averaged as the reported values. The same procedure was applied for specificity characterization, where DOX was injected at 1 μM while off-target reagents mitomycin-C (MTC), ifosfamide (Ifex), Mesna, dacarbazine (DTIC) or cisplatin (CDDP) were injected at 1 mM. […] Voltammograms were taken in immediate succession to provide maximal temporal resolution. Dose-response curves were obtained by fitting data to a one-site binding model, and kinetic-response curves were obtained by fitting data to a one-phase association and dissociation model. […]

Data set [8] can be described thus: Cocaine/procaine binding aptamer sensor step response to target in buffer and whole blood (SWV).
The conditions of data set [9]: biphasic, cited from earlier work.
Where [10] appears, read: after a 5 minute pulse of 600 nM DOX.

{C7MB} = methylene blue on (CH2)7 linker; {C11SH} = thiol on (CH2)11 linker; {MB} = methylene blue redox label; {C6SH} = thiol on (CH2)6 linker

As a reminder, the half-life is the time in which the quantity being followed falls by half. By koff is commonly meant the rate constant with which the complex falls apart. Lower therefore signals slow dissociation. As usually defined, the kon is a measure of how fast the partners come together.

Regarding `COc1cccc2c1C(=O)c1c(O)c3c(c(O)c1C2=O)C[C@@](O)(C(=O)CO)C[C@@H]3O[C@H]1C[C@H](N)[C@H](O)[C@H](C)O1` [DOX, doxorubicin], the “alpha-phase plasma clearance time” value in data set [1] was 6 to 26 min. The half-life in data set [2] (first of two injections of 1 mg·m^−2) is 10.7 ± 0.5 min; in data set [2] (second of two injections of 1 mg·m^−2), 10.8 ± 1 min. Besides, the “Pearson correlation coefficient of t1/2^α as a function of body surface area” value in data set [3] was −0.73.

With `O=P1(NCCCl)OCCCN1CCCl` (centres unmarked) [ifosfamide], in data set [4], the “sensor response to off-target drug” value is “did not respond”.

In the case of `N.N.[Cl][Pt][Cl]` [cisplatin], the “sensor response to off-target drug” value in data set [4] was “did not respond”.

Consider `CO[C@@]12[C@H](COC(N)=O)C3=C(C(=O)C(C)=C(N)C3=O)N1C[C@@H]1N[C@@H]12` [mitomycin-C], for which the “sensor response to off-target drug” value in data set [4] was “did not respond”.

For `O=S(=O)(O)CCS` [mesna], in data set [4], the “sensor response to off-target drug” value is “did not respond”.

Take `NC[C@H]1O[C@H](O[C@H]2[C@H](O)[C@@H](O[C@H]3O[C@H](CO)[C@@H](O)[C@H](N)[C@H]3O)[C@H](N)C[C@@H]2N)[C@H](O)[C@@H](O)[C@@H]1O` [kanamycin]: the “beta phase t1/2^β” value in [5] is 120 to 180 min. The half-life in data set [6] (32 mg/kg) was 7.2 min; in data set [6] (64 mg/kg), 10 min; in data set [6] (96 mg/kg), 9 min.

With “5′-HS—(CH2)6-ACCATCTGTGTAAGGGGTAAGGGGTGGT-MB-3′ (ACCATCTGTGTAAGGGGTAAGGGGTGGT; DNA, 5' {C6SH}, 3' {MB}, backbone and methylation of C not given here) [DOX probe, truncated form of an anthracycline DNA aptamer, thiolated at the 5′-end, MB redox label at the 3′-end]”, the “time to reach 90% saturation” value in [7] (DOX pulse) is given as no more than 45 s. Besides, the “time to return to 10% of baseline” value in data set [7] (after DOX pulse) is no more than 100 s. In [7] (setting [10]), this compound had a koff of 0.0225 ± 0.00083 s⁻¹ and an on-rate (kon) of 50000 ± 5830 M⁻¹ s⁻¹. Besides, in data set [7] (in buffer), the dynamic range was 0.1 to 10 µM and the “limit of detection (LOD)” value was 10 nM. Moreover, the Kd in data set [7] (signal gain fitted to a Langmuir isotherm, DOX 50 nM to 10 μM in 1×SSC, read-out: apparent Kd) was found to be 0.824 µM.

With “5′-HS—(CH2)11-AGACAAGGAAAATCCTTCAATGAAGTGGGTCG-(CH2)7-MB-3′ (AGACAAGGAAAATCCTTCAATGAAGTGGGTCG; DNA, 5' {C11SH}, 3' {C7MB}, backbone and methylation of C not given here) [cocaine/procaine binding aptamer, DNA aptamer thiolated on the 5′-end, methylene blue redox label at the 3′-end]”, the Kd in [8] was roughly 190 µM. In [8] (128 μM target in 1×SSC buffer), this compound came in with a koff of roughly 0.031 s⁻¹. Also, the kon in data set [8] (128 μM target in 1×SSC buffer) is roughly 160 M⁻¹ s⁻¹. Moreover, the signal gain is reported as 60% in [8] (128 μM target in 1×SSC buffer, before blood exposure); roughly 20% in [8] (128 μM target in buffer after whole blood exposure); roughly 10% in [8] (128 μM target in whole blood, after ~1 h whole blood exposure at room temperature). For the same compound, the “affinity for its target at 37° C.” value in [8] (37° C.) is given as “loses affinity for its target”. Also, the “performance at room temperature” value in data set [8] (room temperature) is on record as “performs well”.

Consider `C[C@@H]1[C@H](O)[C@@H](C)/C=C/C=C/C=C/C=C/C=C/C=C/C=C/[C@H](O[C@@H]2O[C@H](C)[C@@H](O)[C@H](N)[C@@H]2O)C[C@@H]2O[C@](O)(C[C@@H](O)C[C@@H](O)[C@H](O)CC[C@@H](O)C[C@@H](O)CC(=O)O[C@H]1C)C[C@H](O)[C@H]2C(=O)O` [Amphotericin B], for which, in data set [9] (initial phase), the “half-life, initial phase” value was 1440 min. Moreover, in data set [9] (second phase), the “half-life, second phase” value is reported as 15 days.

The values above are taken from patent publication US12016682B2, “In-vivo monitoring of molecular targets” (The Regents of the University Of California, priority 2013, dated 2024).
